US20220324770A1, “NITRIFICATION INHIBITORS” (The University of Melbourne, priority 2019, published 2022)

Tests used:
Dahlen soil = assay: Soil thin-layer chromatography (TLC) leaching study, Dahlen soil; assay type: physicochemical
Procedure: (§1) TLC plates were prepared based on methods described in the literature (Helling, C. S., Turner, B. C, Science 1968, 162, 562-563; Mohammad, A., Jabeen, N., JPC—Journal of Planar Chromatography—Modern TLC 2003, 16, 137-143). Masking tape (3 layers, ˜[…] total thickness) was used to outline three columns (4 cm W×12 cm H) on a glass TLC plate (20×20 cm). A slurry of freshly ground soil in distilled H2O (˜2:3 m/v) was then poured onto the prepared plate and spread evenly using a glass rod. Once even, the plate was dried overnight in an oven at 35° C. Careful removal of the masking tape afforded the TLC plate ready for sample application.
(§2) Samples of DMP (the active core of DMPP) or Compound 16 (˜1 mg) dissolved in acetone (100 μL) were pipetted in a straight line across the soil, 2 cm above the base of the plate. Application band thickness was kept under 0.5 cm. After 30 mins of drying time, the TLC plate was developed inside a glass developing chamber with distilled H2O (depth of 0.5 cm) until the solvent front reached the top of the soil (˜1 hr). […] The plate was then allowed to air dry overnight.
(§3) Once dry, the plate was divided into six horizontal bands corresponding to Rf values of: (1) <0.05 (baseline), (2) 0.05 to 0.25, (3) 0.25 to 0.45, (4) 0.45 to 0.65, (5) 0.65 to 0.85, and (6) 0.85 to 1. In sequence, soil in each band was carefully scraped off the glass backing and collected in vials. Special care was taken to avoid cross-contamination between soil of different bands, and the separate channels.
(§4) Individual soil bands collected from the TLC plate were extracted as follows: • 1. Addition of an aqueous solution of CaCl2/MgSO4 (0.01M and 0.45M respectively, 2 mL). • 2. Sonication for 5 minutes then manual shaking for 30 seconds. • 3. Addition of methyl-tert-butyl ether (MTBE, 2 mL) then manual shaking for 30 seconds. • 4. Sonication for 10 minutes then manual shaking for 30 seconds. • 5. Rested until soil began to settle, then frozen overnight at −20° C. • 6. After partial defrosting, the ethereal extract was filtered through nylon syringe filters (FilterBio®, 13 mm diameter, 0.45 µm pore size).
(§5) The filtered ethereal extracts (450 μL) were spiked with 50 μL of a standard solution of either cyclododecanone in MTBE (1.97 mg/mL, for DMP-treated samples) or cyclooctanone in MTBE (6.37 mg/mL, for 16-treated samples). Samples were then directly analysed by GC-MS (method: 70° C. for 5 mins, then ramp 10° C./min to 250° C., hold at 250° C. for 17 mins [total run time=40 minutes]) to analyse the presence or absence of the inhibitor in each soil band.
(§6) GC-MS peak areas calculated for the standards cyclooctanone (Rt=9.1 mins) and cyclododecanone (Rt=15.8 mins) were compared to those calculated for Compound 16 (Rt=13.9 mins) and DMP (Rt=7.6 mins) respectively, for each soil sample extract where inhibitor was detected as follows:
(§7) As each treatment was run in triplicate, mean values are reported for detected inhibitor percentages for each Rf band, with errors presented as the standard deviation.
as §2, with “the DCD” for “DMP (the active core of DMPP) or Compound 16”, “methanol (300” for “acetone (100”, “in” for “with”
(§8) Individual soil bands collected from the TLC plate were extracted as follows: • 1. Addition of methanol (2 mL). • 2. Manual shaking for 30 seconds following sonication for 15 minutes. • 3. Once soil began to settle, the methanolic extract was filtered through nylon syringe filters (FilterBio®, 13 mm diameter, 0.45 µm pore size). • 4. 300 μL of the methanolic extracts were evaporated under nitrogen flow, and then the residues was taken up in ultrapure acetonitrile (1 mL). • 5. […]

South Johnstone soil = assay: Soil thin-layer chromatography (TLC) leaching study, South Johnstone soil; assay type: physicochemical; settings: for Detected Inhibitor (%): South Johnstone soil TLC
Procedure: as §1, §2, §3, §4, §5, §6, §7
as §2, with “the DCD” for “DMP (the active core of DMPP) or Compound 16”, “methanol (300” for “acetone (100”, “in” for “with”
as §8

[1] = temperature of 35° C.; cited from earlier work

SMILES | Rf range in which the majority of the inhibitor was detected (Dahlen soil; Dahlen soil TLC) | Detected Inhibitor (%) (Dahlen soil; Dahlen soil TLC, Rf 0.05-0.25) | Detected Inhibitor (%) (Dahlen soil; Dahlen soil TLC, Rf 0.25-0.45) | Detected Inhibitor (%) (Dahlen soil; Dahlen soil TLC, Rf 0.45-0.65) | Detected Inhibitor (%) (Dahlen soil; Dahlen soil TLC, Rf 0.65-0.85) | mobility in soil TLC (Dahlen soil; neutral Dahlen soil) | leachability (conclusion) (Dahlen soil; neutral soils) | Detected Inhibitor (%) (South Johnstone soil; Rf 0.05-0.25) | Detected Inhibitor (%) (South Johnstone soil; Rf 0.25-0.45) | Detected Inhibitor (%) (South Johnstone soil; Rf 0.45-0.65) | Detected Inhibitor (%) (South Johnstone soil; Rf 0.65-0.85) | Detected Inhibitor (%) (South Johnstone soil; Rf 0.85-1) | leaching tendency (conclusion) (South Johnstone soil; acidic soils) | time DMPP remains effective [1]
CCCc1cn(CCC)nn1 [Compound 16, 1,4-dipropyl-1H-1,2,3-triazole] | 0.25-0.45 | 3 ± 4% | 58 ± 14% | 38 ± 16% | 1 ± 1% | reduced mobility compared to DMP | lower leachability than DMP and DCD | 1 ± 1% | 5 ± 6% | 34 ± 5% | 49 ± 9% | 11 ± 3% | lower-to-similar leaching tendencies to DCD | 
Cc1c[nH]nc1C.O=P(O)(O)O [DMPP, 3,4-dimethylpyrazole phosphate, reference compound] |  |  |  |  |  |  |  |  |  |  |  |  |  | only one week
